Data: patent publication US8323656B2, “Antigen determinant of rheumatoid arthritis-specific autoantibody and use thereof” (priority 2007, dated 2012)

Test system: RA-specific antibodies (4 anti-CCP2-positive sera)
Test: Indirect (inhibition) ELISA: cross-reactivity of analytes with RA-specific antibodies, immobilized CCP2 as capture antigen
Type: binding, human
Parameters: Cross-reactivity of antibodies with the named analyte: concentration or dose not given beside the values
Conditions: for Cross-reactivity (%) of RA-specific antibody, modified α-amino acid: alkylation + acetylation: acetylated amino acid methyl ester of the amino acid named; for Cross-reactivity (%) of RA-specific antibody, modified α-amino acid: alkylation + acetylation / Cross-reactivity (%) of RA-specific antibody, modified α-amino acid: acetylation / Cross-reactivity (%) of RA-specific antibody, modified α-amino acid: alkylation: 0 = less than 1%; for Cross-reactivity (%) of RA-specific antibody, modified α-amino acid: acetylation: acetylated derivative of the amino acid named; for Cross-reactivity (%) of RA-specific antibody, modified α-amino acid: alkylation: methyl esterified (Me) derivative of the amino acid named; for Cross-reactivity (%) of RA-specific antibody, α-amino acid: unmodified α-amino acid, 0 = cross-reactivity less than 1%; for Inhibition of antibody binding to the immobilized CCP2: FIG. 1 and 2, analyte at 50 mM, 4 sera, result in words; for Cross-reactivity of antibodies with the named analyte: the analyte itself is named
Text: A complete set of 21 amino acids and their derivatives were used as analytes to determine if any analyte inhibited the action of the detector antibody in binding to the capture antigen. Determination was made by observation at the single AA level through a series of moving windows of different derivatization. Following this procedure ensures that no antigenic elements of the epitope are missed as long as the possible AA derivatives are available. The analysis began in the fluid phase, wherein initially, the detector antibody was incubated with each of the analytes. After overnight incubation at 4° C., 100 μl of analyte preadsorbed detector antibody per well were added into 96-well microplate which immobilized CCP2 on the surface, and was incubated for 1 hour at room temperature with shaking. […] The reaction was stopped by adding 100 μl of 0.5 M H2SO4 per well and the results were estimated at A450 nm.
The concept of indirect ELISA was based upon an inhibition test between an unknown amount of analyte and a known amount of immobilized antigen for a limited number of detector antibody binding-sites. If the contents of detector antibody and immobilized antigen are kept constant, the distribution of detector antibody between immobilized antigen bound detector antibody and analyte bound detector antibody is dependent upon the amount of sample analyte. The mass of immobilized antigen bound detector antibody is inversely proportional to the amount of analyte bound detector antibody.
(§1) As described in FIG. 1, Amino Acid Profiles for the Antigenic Determinant, ELISA was carried out with sera from Euro-diagnostica (serum 1) and from three patients (serum 2, 3, and 4) with RA to CCP2 positive at various concentrations of different amino acids. […] The horizontal line at 100% represents the control percent binding of the CCP2 to the antibody.
as §1, with “2, Acetylamino” for “1, Amino”, “acetylamino” for “amino”
as §1, with “3, Alkylamino” for “1, Amino”, “alkylamino” for “amino”
as §1, with “4, Acetylamino” for “1, Amino”, “Acid Methyl Ester” for “Acid”, “acetylamino acid methyl esters.” for “amino acids.”

| Structure (SMILES) | Cross-reactivity (%) of RA-specific antibody, modified α-amino acid: alkylation + acetylation | Cross-reactivity (%) of RA-specific antibody, modified α-amino acid: acetylation | Cross-reactivity (%) of RA-specific antibody, modified α-amino acid: alkylation | Cross-reactivity (%) of RA-specific antibody, α-amino acid | Inhibition of antibody binding to the immobilized CCP2 | Cross-reactivity of antibodies with the named analyte |
| --- | --- | --- | --- | --- | --- | --- |
| C[C@@H](O)[C@H](N)C(=O)O [Threonine] | 0% | 0% | ^Me0% | 0% |  |  |
| CC(=O)N[C@@H](CCCN=C(N)N)C(=O)O [acetyl-Arg] |  |  |  |  | limited inhibition | 5% |
| COC(=O)[C@H](CCCNC(=N)N)NC(C)=O [acetyl-Arg-Me] |  |  |  |  |  | 13% |
| COC(=O)C(N)CCCNC(N)=O (stereo not shown) [Cit-Me] |  |  |  |  |  | 81% |
| COC(=O)[C@@H](N)CCCN=C(N)N [Arg-Me] |  |  |  |  |  | 6% |
| CSCC[C@H](N)C(=O)O [Methionine] | 0% | 0% | ^Me0% | 0% |  | 0% |
| CSCCC(NC(C)=O)C(=O)O (stereo not shown) [acetyl-Met] |  |  |  |  |  | 0% |
| COC(=O)C(N)CCSC (stereo not shown) [Met-Me] |  |  |  |  |  | 0% |
| C[C@H](N)C(=O)O [Alanine] | 0% | 0% | ^Me0% | 0% |  |  |
| CC(=O)N[C@@H](CCCNC(N)=O)C(=O)O [acetyl-Cit] |  |  |  |  | strong inhibition | 74% |
| COC(=O)[C@@H](N)CS [Cys-Me] |  |  |  |  |  | 48% |
| CCCOC(=O)C(N)CCCNC(N)=O (stereo not shown) [Cit-Pe] |  |  |  |  |  | 115% |
| CCOC(=O)C(N)CCCNC(N)=O (stereo not shown) [Cit-Ee] |  |  |  |  |  | 72% |
| CC(C)C[C@H](N)C(=O)O [Leucine] | 0% | 0% | ^Me0% | 0% |  |  |
| N[C@@H](CO)C(=O)O [Serine] | 0% | 0% | ^Me0% | 0% |  | 0% |
| CC[C@H](C)[C@H](N)C(=O)O [Isoleucine] | 0% | 0% | ^Me0% | 0% |  |  |
| COC(=O)[C@H](CO)NC(C)=O [acetyl-Ser-Me] |  |  |  |  |  | 0% |
| N[C@@H](Cc1c[nH]cn1)C(=O)O [Histidine] | 0% | 0% | ^Me0% | 0% |  |  |

| Structure (SMILES) | Cross-reactivity (%) of RA-specific antibody, modified α-amino acid: alkylation + acetylation | Cross-reactivity (%) of RA-specific antibody, modified α-amino acid: acetylation | Cross-reactivity (%) of RA-specific antibody, modified α-amino acid: alkylation | Cross-reactivity (%) of RA-specific antibody, α-amino acid | Inhibition of antibody binding to the immobilized CCP2 | Cross-reactivity of antibodies with the named analyte |
| --- | --- | --- | --- | --- | --- | --- |
| N[C@@H](Cc1c[nH]c2ccccc12)C(=O)O [Tryptophan] | 0% | 0% | ^Me0% | 0% |  |  |
| NCC(=O)O [Glycine] | 0% | 0% | ^Me0% | 0% |  |  |
| N[C@@H](CCC(=O)O)C(=O)O [Glutamic acid] | 0% | 0% | ^Me0% | 0% |  |  |
| NC(=O)CC[C@H](N)C(=O)O [Glutamine] | 0% | 0% | ^Me0% | 0% |  |  |
| COC(=O)C(CCCNC(N)=O)NC(C)=O (stereo not shown) [acetyl-Cit-Me] |  |  |  |  |  | 100% |
| COC(=O)[C@H](CCSC)NC(C)=O [acetyl-Met-Me] |  |  |  |  |  | 0% |
| COC(=O)[C@@H](N)CO [Ser-Me] |  |  |  |  |  | 0% |
| NC(=O)C[C@H](N)C(=O)O [Asparagine] | 0% | 0% | ^Me0% | 0% |  |  |
| COC(=O)[C@H](CS)NC(C)=O [acetyl-Cys-Me] |  |  |  |  |  | 57% |
| NCCCC[C@H](N)C(=O)O [Lysine] | 0% | 0% | ^Me0% | 0% |  |  |
| O=C(O)[C@@H]1CCCN1 [Proline] | 0% | 0% | ^Me0% | 0% |  |  |
| CC(=O)N[C@@H](CS)C(=O)O [acetyl-Cys] |  |  |  |  | strong inhibition | 50% |
| CC(=O)N[C@@H](CO)C(=O)O [acetyl-Ser] |  |  |  |  |  | 0% |
| CC(C)[C@H](N)C(=O)O [Valanine] | 0% | 0% | ^Me0% | 0% |  |  |
| N[C@@H](Cc1ccccc1)C(=O)O [Phenylalanine] | 0% | 0% | ^Me0% | 0% |  |  |
| CCCCOC(=O)[C@@H](N)CCCNC(N)=O [Cit-Be] |  |  |  |  |  | 124% |
| N[C@@H](Cc1ccc(O)cc1)C(=O)O [Tyrosine] | 0% | 0% | ^Me0% | 0% |  |  |
| N[C@@H](CS)C(=O)O [Cysteine] | 57% | 48% | ^Me50% | 0% | limited capability to inhibit | 0% |
